Entries after “also recorded” stand apart in the source; their conditions may differ.
Key:
CYP2B6 [1] = test: CYP induction (enzyme activity) in cryopreserved human hepatocytes, CYP2B6; details: for fold induction at 72 h, 0.15 µM / fold induction at 72 h, 1.5 µM / fold induction at 72 h, 5 µM / fold induction at 72 h, 15 µM: human, plated cryopreserved human hepatocytes
Experimental: The UPLC–MS/MS (SHIMADZU, LC-30AD) equipped with waters Xselect®HSS T3 2.5 μm (2.1 × 50 mm) was used to detect the marker metabolites in the enzyme activity assay. The fold-induction enzyme activity was determined using the ratio calculation (the calculation details are available in the Supplementary Materials).
CYP activity was expressed as pmol/min/million cells where pmol was defined as the amount of metabolite formed during the reaction. […] The fold-induction enzyme activity was determined by the ratio:
Fold of induction = CYP activity(induced) / CYP activity(vehicle)
% of positive control = (𝑪𝒀𝑷 𝒂𝒄𝒕𝒊𝒗𝒊𝒕𝒚(𝒊𝒏𝒅𝒖𝒄𝒆𝒅)ି 𝑪𝒀𝑷 𝒂𝒄𝒕𝒊𝒗𝒊𝒕𝒚(𝑫𝑴𝑺𝑶))(𝑪𝒀𝑷 𝒂𝒄𝒕𝒊𝒗𝒊𝒕𝒚(𝒑𝒐𝒔𝒊𝒕𝒊𝒗𝒆 𝒄𝒐𝒏𝒕𝒓𝒐𝒍)ି 𝑪𝒀𝑷 𝒂𝒄𝒕𝒊𝒗𝒊𝒕𝒚(𝑫𝑴𝑺𝑶))х 𝟏𝟎𝟎 Based on the enzyme activity, a minimum of 2-fold increase of a response compared to vehicle control and ≥ 20% of the positive control was considered as the cutoff for a positive signal in in vitro induction

CYP2C9 = CYP2C9 (Homo sapiens, UniProt P11712); test: CYP inhibition in human liver microsomes, CYP2C9; assay type: in vitro ADME; details: HLM, marker substrate Diclofenac
CYP2C9, sequence (P11712 whole entry): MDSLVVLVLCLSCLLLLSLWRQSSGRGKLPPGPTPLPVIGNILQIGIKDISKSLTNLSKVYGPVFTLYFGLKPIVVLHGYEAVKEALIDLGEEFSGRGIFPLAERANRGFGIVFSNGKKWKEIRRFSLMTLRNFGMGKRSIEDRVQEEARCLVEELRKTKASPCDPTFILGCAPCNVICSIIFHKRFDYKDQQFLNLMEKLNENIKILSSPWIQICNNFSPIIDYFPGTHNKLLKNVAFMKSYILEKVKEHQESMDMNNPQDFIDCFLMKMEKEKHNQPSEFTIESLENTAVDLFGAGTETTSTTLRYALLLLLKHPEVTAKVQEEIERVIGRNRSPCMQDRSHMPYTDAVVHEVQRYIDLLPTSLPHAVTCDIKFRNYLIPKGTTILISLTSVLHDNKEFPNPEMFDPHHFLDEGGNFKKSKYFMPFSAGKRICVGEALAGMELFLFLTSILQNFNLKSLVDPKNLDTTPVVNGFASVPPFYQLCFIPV
Experimental: (§1) . The inhibition of CYP2B6 and 3A4 (when midazolam was used as the substrate) by ZB716 was not observed. The inhibitory potential of ZB716 on human CYP enzyme activities appears relatively low.
(§2) The final concentrations of ZB716 in the incubation system were 0, 0.05, 0.15, 0.5, 1.5, 5, and 15 µM (final organic solvent concentration ≤ 1%). […] . […] The concentrations of the isoform-specific metabolites derived from marker substrates were measured by UPLC–MS/MS. The IC50 values were calculated from the percentages of the rate of the metabolite formation relative to non-inhibited controls vs. the concentrations of ZB716 or positive control inhibitors. All incubations were performed in triplicate. The mean of the enzyme activity (% of non-inhibited control) for each concentration was plotted against the log inhibitor concentration, and fitted to an IC50 curve.

CYP2C19 = CYP2C19 (Homo sapiens, UniProt P33261); test: CYP inhibition in human liver microsomes, CYP2C19; assay type: in vitro ADME; details: HLM, marker substrate Mephenytoin
CYP2C19, sequence (P33261 whole entry): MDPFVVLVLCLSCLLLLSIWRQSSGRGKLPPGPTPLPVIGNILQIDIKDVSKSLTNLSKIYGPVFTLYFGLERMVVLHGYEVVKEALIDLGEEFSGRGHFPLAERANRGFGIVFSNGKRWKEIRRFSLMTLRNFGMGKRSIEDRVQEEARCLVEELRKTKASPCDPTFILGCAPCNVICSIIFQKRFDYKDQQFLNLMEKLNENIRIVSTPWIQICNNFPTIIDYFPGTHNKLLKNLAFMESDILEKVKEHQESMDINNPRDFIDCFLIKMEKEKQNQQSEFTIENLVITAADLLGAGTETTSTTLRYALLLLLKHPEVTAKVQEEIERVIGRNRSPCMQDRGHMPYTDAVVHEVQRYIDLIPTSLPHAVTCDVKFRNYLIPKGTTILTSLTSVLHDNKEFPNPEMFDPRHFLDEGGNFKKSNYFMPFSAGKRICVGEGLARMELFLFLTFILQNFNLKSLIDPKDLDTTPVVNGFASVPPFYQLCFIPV
Experimental: as §1, §2

rat plasma proteins = test: Plasma protein binding by equilibrium dialysis, rat; assay type: in vitro ADME; details: for Remaining: 6 h
Experimental: (§3) The in vitro binding of ZB716 to plasma proteins was determined by equilibrium dialysis technique in mouse, rat, dog, monkey, and human plasma (EDTA-K2 as anticoagulant), over the concentration range of 0.1–10 μM. The free concentration of ZB716 was below the lower limit of quantitation at 0.1, 1, and 10 μM in human, monkey, dog, rat, and mouse plasma.
(§4) The equilibrium dialysis method was used to investigate the in vitro binding of ZB716 to human, monkey, dog, rat, and mouse plasma proteins. The dialysis phosphate buffer solution (100 mM, pH 7.4) and plasma samples containing 0.1, 1, and 10 μM of ZB716 were added to separate chambers of dialysis wells of the HTDialysis device. The dialysis plate was placed in an incubator at 37 °C with 5% CO2 at approximately 100 rpm for 6 h. After incubation, the seal was removed, and 50 μL each of post-dialysis samples was pipetted from both the buffer and plasma chambers into fresh 96-well plates. The samples were analyzed via UPLC–MS/MS. The bound fraction, unbound fraction, recovery (%), and remaining (%) were calculated by Equations (2)–(5):%Unbound = (Conc.buffer chamber/Conc.plasma chamber) × 100(2) %Bound = 100% − %Unbound (3) %Recovery = (Conc.buffer chamber + Conc.plasma chamber)/Conc.Total sample × 100 (4) %Remaining = Conc.6h/Conc.0h × 100 (5)

[2] = as above; assay type: in vitro ADME; details: plasma (EDTA-K2 as anticoagulant)
Experimental: as §3, §4

CYP2B6 [3] = molecular target: T1, CYP2B6 (Homo sapiens, UniProt P20813); test: CYP inhibition in human liver microsomes, CYP2B6; assay type: in vitro ADME; details: HLM, marker substrate Bupropion
T1 sequence (P20813 1-491): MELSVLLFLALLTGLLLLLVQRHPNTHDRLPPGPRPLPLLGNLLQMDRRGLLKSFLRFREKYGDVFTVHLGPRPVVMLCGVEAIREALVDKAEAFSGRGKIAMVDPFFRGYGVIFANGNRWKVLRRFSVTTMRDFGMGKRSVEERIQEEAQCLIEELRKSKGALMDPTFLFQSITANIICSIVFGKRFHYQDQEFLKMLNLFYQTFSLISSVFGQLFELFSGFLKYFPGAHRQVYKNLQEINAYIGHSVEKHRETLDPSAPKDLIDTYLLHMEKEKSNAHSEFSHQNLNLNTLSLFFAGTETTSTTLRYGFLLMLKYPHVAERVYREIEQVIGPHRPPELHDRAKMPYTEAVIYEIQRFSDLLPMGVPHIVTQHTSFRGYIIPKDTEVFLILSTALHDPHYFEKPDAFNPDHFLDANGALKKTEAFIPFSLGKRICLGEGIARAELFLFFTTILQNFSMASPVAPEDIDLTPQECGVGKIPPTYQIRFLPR
Experimental: as §1, §2

CYP2C8 = molecular target: T2, CYP2C8 (Homo sapiens, UniProt P10632); test: CYP inhibition in human liver microsomes, CYP2C8; assay type: in vitro ADME; details: HLM, marker substrate Amodiaquine
T2 sequence (P10632 1-490): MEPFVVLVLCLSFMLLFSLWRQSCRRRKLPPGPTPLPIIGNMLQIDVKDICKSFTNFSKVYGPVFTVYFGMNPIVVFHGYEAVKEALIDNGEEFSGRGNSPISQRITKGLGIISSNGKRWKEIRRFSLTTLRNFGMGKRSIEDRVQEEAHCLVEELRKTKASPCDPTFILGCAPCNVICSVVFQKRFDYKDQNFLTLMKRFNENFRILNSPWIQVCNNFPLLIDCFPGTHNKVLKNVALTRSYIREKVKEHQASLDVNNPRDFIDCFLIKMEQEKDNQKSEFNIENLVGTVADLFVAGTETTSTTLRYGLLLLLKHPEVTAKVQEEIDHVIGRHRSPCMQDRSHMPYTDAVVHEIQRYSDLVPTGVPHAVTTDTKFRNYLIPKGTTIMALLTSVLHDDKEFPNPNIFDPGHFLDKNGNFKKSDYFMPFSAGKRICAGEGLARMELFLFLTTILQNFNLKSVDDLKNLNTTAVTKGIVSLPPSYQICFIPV
Experimental: as §1, §2

For C[C@]12CC[C@@H]3c4ccc(B(O)O)cc4C[C@@H](CCCCCCCCC[S+]([O-])CCCC(F)(F)C(F)(F)F)[C@H]3[C@@H]1CC[C@@H]2O (stereo partly drawn) [ZB716, fulvestrant-3-boronic acid], which “induction fold compared to the vehicle control” value (CYP2B6 [1]; all three donors, 1.5–15 μM) is on record?
The value was 2.98–6.40.

What about the “induction percentage of the positive control” value (CYP2B6 [1]; all three donors, 1.5–15 μM) of the same compound?
The value was 37.4–92.1%.

And the “Percent of Control” value (CYP2B6 [1]; donor one, 0.15 µM)?
Its value is 2.22%.

And the “Percent of Control” value (CYP2B6 [1]; donor one, 1.5 µM)?
Its value is 17.2%.

And the “Percent of Control” value (CYP2B6 [1]; donor one, 5 µM)?
The value was 70.6%.

What about the “Percent of Control” value (CYP2B6 [1]; donor one, 15 µM) of the same compound?
Its value is 73.0%.

What about the “Percent of Control” value (CYP2B6 [1]; donor three, 0.15 µM) of the same compound?
The value was 2.61%.

What about the “Percent of Control” value (CYP2B6 [1]; donor three, 1.5 µM) of the same compound?
The value was 39.2%.

And the “Percent of Control” value (CYP2B6 [1]; donor three, 5 µM)?
The value was 37.4%.

And the “Percent of Control” value (CYP2B6 [1]; donor three, 15 µM)?
The value was 4.18%.

And the “Percent of Control” value (CYP2B6 [1]; donor two, 0.15 µM)?
Its value is 3.16%.

What about the “Percent of Control” value (CYP2B6 [1]; donor two, 1.5 µM) of the same compound?
The value was 19.8%.

What about the “Percent of Control” value (CYP2B6 [1]; donor two, 5 µM) of the same compound?
The value was 71.7%.

And the “Percent of Control” value (CYP2B6 [1]; donor two, 15 µM)?
The value was 92.1%.

What about the fold induction at 72 h, 0.15 µM (CYP2B6 [1]; donor one, 0.15 µM) of the same compound?
Its fold induction at 72 h, 0.15 µM is 1.1 ± 0.05.

What about the fold induction at 72 h, 1.5 µM (CYP2B6 [1]; donor one, 1.5 µM) of the same compound?
The fold induction at 72 h, 1.5 µM was 1.77 ± 0.13.

And the fold induction at 72 h, 5 µM (CYP2B6 [1]; donor one, 5 µM)?
The fold induction at 72 h, 5 µM was 4.14 ± 0.06.

And the fold induction at 72 h, 15 µM (CYP2B6 [1]; donor one, 15 µM)?
Its fold induction at 72 h, 15 µM is 4.24 ± 0.47.

And the fold induction at 72 h, 0.15 µM (CYP2B6 [1]; donor three, 0.15 µM)?
The fold induction at 72 h, 0.15 µM was 1.14 ± 0.09.

What about the fold induction at 72 h, 1.5 µM (CYP2B6 [1]; donor three, 1.5 µM) of the same compound?
The fold induction at 72 h, 1.5 µM was 3.07 ± 0.36.

What about the fold induction at 72 h, 5 µM (CYP2B6 [1]; donor three, 5 µM) of the same compound?
The fold induction at 72 h, 5 µM was 2.98 ± 0.74.

What about the fold induction at 72 h, 15 µM (CYP2B6 [1]; donor three, 15 µM) of the same compound?
Its fold induction at 72 h, 15 µM is 1.22 ± 0.42.

And the fold induction at 72 h, 0.15 µM (CYP2B6 [1]; donor two, 0.15 µM)?
Its fold induction at 72 h, 0.15 µM is 1.19 ± 0.1.

What about the fold induction at 72 h, 1.5 µM (CYP2B6 [1]; donor two, 1.5 µM) of the same compound?
The fold induction at 72 h, 1.5 µM was 2.16 ± 0.07.

What about the fold induction at 72 h, 5 µM (CYP2B6 [1]; donor two, 5 µM) of the same compound?
The fold induction at 72 h, 5 µM was 5.21 ± 0.24.

What about the fold induction at 72 h, 15 µM (CYP2B6 [1]; donor two, 15 µM) of the same compound?
The fold induction at 72 h, 15 µM was 6.4 ± 0.16.

What about the IC50 (CYP2C9) of the same compound?
The IC50 was 4.77 µM.

And the IC50 (CYP2C19)?
The IC50 was 2.2 µM.

And the Bound (rat plasma proteins; 0.1 μM)?
Its Bound is >97.7%.

And the Unbound (rat plasma proteins; 0.1 μM)?
Its Unbound is <2.35%.

And the Remaining (rat plasma proteins; 0.1 μM)?
Its Remaining is 83.9 ± 8.2%.

And the Bound (rat plasma proteins; 1 μM)?
Its Bound is >99.8%.

And the Unbound (rat plasma proteins; 1 μM)?
Its Unbound is <0.216%.

And the Remaining (rat plasma proteins; 1 μM)?
The Remaining was 91.1 ± 2.1%.

What about the Bound (rat plasma proteins; 10 μM) of the same compound?
The Bound was >99.97%.

And the Unbound (rat plasma proteins; 10 μM)?
The Unbound was <0.0281%.

And the Remaining (rat plasma proteins; 10 μM)?
Its Remaining is 84.7 ± 2.0%.

And the recovery at 6 h, 0.1 μM ([2]; pH 7.4, 0.1 μM)?
Its recovery at 6 h, 0.1 μM is < 94.4%.

And the recovery at 6 h, 1 μM ([2]; pH 7.4, 1 μM)?
Its recovery at 6 h, 1 μM is < 94.9%.

What about the recovery at 6 h, 10 μM ([2]; pH 7.4, 10 μM) of the same compound?
The recovery at 6 h, 10 μM was < 82.1%.

And the IC50 (CYP2B6 [3])?
Its IC50 is “not observed; also recorded: No Inhibition”.

What about the IC50 (CYP2C8) of the same compound?
The IC50 was 6.27 µM.

Source: article PMC8400955 (Pharmaceuticals, 2021)
